In test [1] the test system is bovine pulmonary endothelial cells (bPAEC). The test is described as follows: 3H-thymidine incorporation cell proliferation assay in bPAEC combined with c-Met siRNA. As to conditions: serial dilutions of 5-((E)-2-thiophen-2-yl-vinyl)-1H-pyrazole or HGF; with c-Met siRNA knockdown; FIG. 1B-C. It counts as cell-based. Here is the method:
Compounds promote proliferation of pulmonary endothelial cells specifically through c-Met. Proliferation of pulmonary endothelial cells is one of the important pulmotrophic activities of HGF. […] First, a c-Met siRNA was used with a lipo-transfecting reagent to knock down the c-Met mRNA level in bPAEC cells, and real time RT-PCR conducted to measure the effect. The c-Met siRNA can knock down ˜90% of c-Met mRNA at a c-Met siRNA concentration as low as 50 nM. Next, the siRNA knockdown condition established from the first step was used to decrease >=90% of c-Met mRNA in bPAEC by using 100 nM of the c-Met siRNA pool, and subsequently ^3H-thymidine incorporation assay was performed in the bPAEC cells.
Shown in FIG. 1B-C, ˜5,000/well bPAEC were plated in 96 well plates. The steps as described above were continued until 24 h after adding the mixture of siRNAs and lipofectamine. Then the medium was changed with the fresh mixture of siRNAs and lipofectamine containing serial dilutions of the compound 5-((E)-2-thiophen-2-yl-vinyl)-1H-pyrazole or HGF, incubated another 24 h, 100 ul of ^3H-thymidine(1uCi/ml) was added and incubation continued overnight. Then, 100 ul/well Trypsin/EDTA was added, and ^3H-thymidine incorporation analysis was conducted using an auto-harvester and Topcount NXT v2.12 instrument.
(In general: Incorporation of labelled thymidine or its analogues reports DNA synthesis.)

For test [2] the test system is unchanged. Nature of the test: CytoSelect 24-well cell migration assay of bPAEC. In kind it is cell-based. Particulars: 24 h; multiple concentrations; FIG. 2. Here is the method:
Another important pulmotrophic activity of HGF is to stimulate migration of pulmonary endothelial cells. Again, bPAEC cells were used to test if test compound, like HGF, can stimulate migration of the cells. The CytoSelect 24-well cell migration assay (Cell Biolabs, Inc.) was used to measure the migration of bPAEC cells according to the kit manual.
CytoSelect 24-well cell migration assay kit (Cell Biolabs, Inc.) was used. Briefly, ˜300,000 cells/chamber were seeded in serum-free medium and put into a larger well containing medium with no-serum (C), serum, HGF, compound at multiple concentrations (see above), respectively, and incubated for 24 h. The medium was then aspirated from the chamber and then carefully and completely, the cells on the inner surface of the membrane were removed with cotton and the membrane washed twice. The migrated cells were stained and quantified by measuring OD at 560 nm. The mean values from bouble wells for each compound are shown.

Regarding “HGF: hepatocyte growth factor (HGF; also known as scatter factor), acts through its receptor c-Met”, the “proliferation of bPAEC cells (3H-thymidine incorporation)” value in test [1] is recorded as “promote proliferation of bPAEC cells specifically through HGF receptor c-Met”. Further, the “migration of bPAEC cells (OD at 560 nM)” value in test [2] is listed as “stimulates bPAEC cells migration”.
